{"source": "PubChem BioAssay (NCI)", "assay_in_all_cases": "DTP human tumour cell line panel, 48 h", "key": {"DU-145 prostate": {"test_system": "DU-145 prostate"}, "HT29 colon": {"test_system": "HT29 colon"}, "TK-10 renal": {"test_system": "TK-10 renal"}, "MDA-MB-435": {"test_system": "MDA-MB-435"}, "SF-268 CNS": {"test_system": "SF-268 CNS"}, "T-47D breast": {"test_system": "T-47D breast"}, "786-0 renal": {"test_system": "786-0 renal"}, "OVCAR-3 ovarian": {"test_system": "OVCAR-3 ovarian"}, "CCRF-CEM leukemia": {"test_system": "CCRF-CEM leukemia"}, "SK-OV-3 ovarian": {"test_system": "SK-OV-3 ovarian"}, "IGROV1 ovarian": {"test_system": "IGROV1 ovarian"}, "NCI-H23 lung": {"test_system": "NCI-H23 lung"}, "COLO 205 colon": {"test_system": "COLO 205 colon"}, "SK-MEL-28 melanoma": {"test_system": "SK-MEL-28 melanoma"}, "NCI-H460 lung": {"test_system": "NCI-H460 lung"}, "UO-31 renal": {"test_system": "UO-31 renal"}, "A549 NSCLC": {"test_system": "A549 NSCLC"}, "ACHN renal": {"test_system": "ACHN renal"}, "CAKI-1 renal": {"test_system": "CAKI-1 renal"}, "HOP-62 NSCLC": {"test_system": "HOP-62 NSCLC"}, "SK-MEL-5 melanoma": {"test_system": "SK-MEL-5 melanoma"}, "SK-MEL-2 melanoma": {"test_system": "SK-MEL-2 melanoma"}, "SW-620 colon": {"test_system": "SW-620 colon"}, "NCI/ADR-RES ovarian": {"test_system": "NCI/ADR-RES ovarian"}, "LOX IMVI melanoma": {"test_system": "LOX IMVI melanoma"}, "SF-295 CNS": {"test_system": "SF-295 CNS"}, "KM12 colon": {"test_system": "KM12 colon"}}, "note": "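Grown in 96-well plates, cells were treated for 48 hours with each compound at five concentrations. Insufficient inhibition: endpoint recorded as highest concentration tested. GI50 is the concentration that inhibits growth by half. TGI is the concentration that stops growth completely.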"}
{"compound": "O=C(O)c1ccccc1Nc1ccc2nnc(-c3ccncc3)n2n1", "values": [{"measurement": "GI50", "setting": "DU-145 prostate", "result": 11.5, "unit": "µM"}, {"measurement": "TGI", "setting": "DU-145 prostate", "result": 25.6, "unit": "µM"}, {"measurement": "GI50", "setting": "HT29 colon", "result": 5.66, "unit": "µM"}, {"measurement": "TGI", "setting": "HT29 colon", "result": 24.2, "unit": "µM"}, {"measurement": "GI50", "setting": "TK-10 renal", "result": 7.13, "unit": "µM"}, {"measurement": "TGI", "setting": "TK-10 renal", "result": 25, "unit": "µM"}, {"measurement": "GI50", "setting": "MDA-MB-435", "result": 4.02, "unit": "µM"}, {"measurement": "TGI", "setting": "MDA-MB-435", "result": 23.1, "unit": "µM"}, {"measurement": "GI50", "setting": "SF-268 CNS", "result": 5.6, "unit": "µM"}, {"measurement": "TGI", "setting": "SF-268 CNS", "result": 29.2, "unit": "µM"}, {"measurement": "GI50", "setting": "T-47D breast", "result": 4.3, "unit": "µM"}, {"measurement": "TGI", "setting": "T-47D breast", "result": 22.3, "unit": "µM"}, {"measurement": "GI50", "setting": "786-0 renal", "result": 4.64, "unit": "µM"}, {"measurement": "TGI", "setting": "786-0 renal", "result": 19.7, "unit": "µM"}, {"measurement": "GI50", "setting": "OVCAR-3 ovarian", "result": 9.7, "unit": "µM"}, {"measurement": "TGI", "setting": "OVCAR-3 ovarian", "result": 24.8, "unit": "µM"}, {"measurement": "GI50", "setting": "CCRF-CEM leukemia", "result": 4.28, "unit": "µM"}, {"measurement": "TGI", "setting": "CCRF-CEM leukemia", "result": "> 100", "unit": "µM"}, {"measurement": "GI50", "setting": "SK-OV-3 ovarian", "result": 22, "unit": "µM"}, {"measurement": "TGI", "setting": "SK-OV-3 ovarian", "result": "> 100", "unit": "µM"}, {"measurement": "GI50", "setting": "IGROV1 ovarian", "result": 5.29, "unit": "µM"}, {"measurement": "TGI", "setting": "IGROV1 ovarian", "result": 22.9, "unit": "µM"}, {"measurement": "GI50", "setting": "NCI-H23 lung", "result": 14.1, "unit": "µM"}, {"measurement": "TGI", "setting": "NCI-H23 lung", "result": 54.2, "unit": "µM"}, {"measurement": "GI50", "setting": "COLO 205 colon", "result": 13, "unit": "µM"}, {"measurement": "TGI", "setting": "COLO 205 colon", "result": 30.8, "unit": "µM"}, {"measurement": "GI50", "setting": "SK-MEL-28 melanoma", "result": 12.7, "unit": "µM"}, {"measurement": "TGI", "setting": "SK-MEL-28 melanoma", "result": 29.6, "unit": "µM"}, {"measurement": "GI50", "setting": "NCI-H460 lung", "result": 4.27, "unit": "µM"}, {"measurement": "TGI", "setting": "NCI-H460 lung", "result": 24, "unit": "µM"}, {"measurement": "GI50", "setting": "UO-31 renal", "result": 3.81, "unit": "µM"}, {"measurement": "TGI", "setting": "UO-31 renal", "result": 15.5, "unit": "µM"}, {"measurement": "GI50", "setting": "A549 NSCLC", "result": 13.3, "unit": "µM"}, {"measurement": "TGI", "setting": "A549 NSCLC", "result": 62, "unit": "µM"}, {"measurement": "GI50", "setting": "ACHN renal", "result": 4.24, "unit": "µM"}, {"measurement": "TGI", "setting": "ACHN renal", "result": 17.4, "unit": "µM"}, {"measurement": "GI50", "setting": "CAKI-1 renal", "result": 3.22, "unit": "µM"}, {"measurement": "TGI", "setting": "CAKI-1 renal", "result": 11.7, "unit": "µM"}, {"measurement": "GI50", "setting": "HOP-62 NSCLC", "result": 15.4, "unit": "µM"}, {"measurement": "TGI", "setting": "HOP-62 NSCLC", "result": 33.5, "unit": "µM"}, {"measurement": "GI50", "setting": "SK-MEL-5 melanoma", "result": 3.92, "unit": "µM"}, {"measurement": "TGI", "setting": "SK-MEL-5 melanoma", "result": 14.8, "unit": "µM"}, {"measurement": "GI50", "setting": "SK-MEL-2 melanoma", "result": 3.15, "unit": "µM"}, {"measurement": "TGI", "setting": "SK-MEL-2 melanoma", "result": 9.08, "unit": "µM"}, {"measurement": "GI50", "setting": "SW-620 colon", "result": 6.48, "unit": "µM"}, {"measurement": "TGI", "setting": "SW-620 colon", "result": 36, "unit": "µM"}, {"measurement": "GI50", "setting": "NCI/ADR-RES ovarian", "result": 18.8, "unit": "µM"}, {"measurement": "TGI", "setting": "NCI/ADR-RES ovarian", "result": 77.4, "unit": "µM"}, {"measurement": "GI50", "setting": "LOX IMVI melanoma", "result": 1.97, "unit": "µM"}, {"measurement": "TGI", "setting": "LOX IMVI melanoma", "result": 4.1, "unit": "µM"}, {"measurement": "GI50", "setting": "SF-295 CNS", "result": 13.3, "unit": "µM"}, {"measurement": "TGI", "setting": "SF-295 CNS", "result": 40.1, "unit": "µM"}, {"measurement": "GI50", "setting": "KM12 colon", "result": 7.34, "unit": "µM"}, {"measurement": "TGI", "setting": "KM12 colon", "result": 23.9, "unit": "µM"}]}
